Data set [1] relates to orexin/tTA; Tet-O diphtheria toxin A mice (DTA mice). The class given is in vivo, mouse. Conditions: 6 h after dosing at ZT12; for cataplexy (C) time: Compound I-19 0.3, 1, 3 mg/kg i.p., Compound I-4 0.3, 1, 3 mg/kg p.o., Des 5 mg/kg p.o.
The target in the next data set is T1, OAT3 (Homo sapiens, UniProt Q8TCC7).
T1 sequence (Q8TCC7 1-542): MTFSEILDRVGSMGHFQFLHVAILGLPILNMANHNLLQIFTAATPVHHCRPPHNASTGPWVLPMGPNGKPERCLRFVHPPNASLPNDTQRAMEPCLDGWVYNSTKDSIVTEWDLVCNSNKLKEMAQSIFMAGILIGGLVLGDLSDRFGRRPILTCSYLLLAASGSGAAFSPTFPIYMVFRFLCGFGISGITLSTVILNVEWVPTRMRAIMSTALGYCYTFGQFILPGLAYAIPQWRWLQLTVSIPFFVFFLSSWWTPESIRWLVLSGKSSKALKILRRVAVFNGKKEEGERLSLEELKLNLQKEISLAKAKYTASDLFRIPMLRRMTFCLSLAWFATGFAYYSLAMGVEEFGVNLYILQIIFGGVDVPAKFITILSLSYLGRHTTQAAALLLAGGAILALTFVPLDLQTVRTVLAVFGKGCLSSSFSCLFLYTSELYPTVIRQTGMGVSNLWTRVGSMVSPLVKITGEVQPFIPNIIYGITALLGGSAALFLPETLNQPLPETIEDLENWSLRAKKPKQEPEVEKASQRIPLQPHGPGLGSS
Put plainly: Uptake transporter inhibition assay, OAT3 (estrone-3-sulfate). To be noted: for inhibition at 500 μM: human. As to the method:
Uptake experiments were performed using HEK293 cells stably expressing the respective uptake transporters. The assays were conducted according to the actual SOLVO uptake transporter assay protocols (PR-ASY-UPT-General Protocol for Uptake Transporter Inhibition Assays).
Cells were cultured at 37° C. in a humidified atmosphere containing 5% CO2 and were plated onto standard 96-well tissue culture plates.
Before the experiment, the medium was removed, and the cells were washed twice with 100 μL of pre-warmed (37° C.) assay buffer listed in Table 15. The cells were pre-incubated at 37° C. for 30 minutes in assay buffer containing the test article at appropriate concentrations (Table 16), appropriate solvents for solvent controls and the reference inhibitor for reference inhibitor wells. After the pre-incubation step solutions were removed. Uptake experiments were performed at 37° C. in 50 μL of assay buffer containing the probe substrate and the test article or solvent and controls.
After the experiment, cells were washed twice with 100 μL of appropriate cold buffer and lysed with 150 μL scintillation cocktail. Radiolabeled probe substrate transport was determined by liquid scintillation counting.
Uptake of the probe substrate in control cells provided background activity values for all data points.

The subject of a further data set is rat red blood cells. Briefly: Hemolysis study in rat blood. It counts as cell-based. To be noted: 60 min, 37° C. As to the method:
FIG. 6A. […] Compound I-19 in rat blood. Red blood cells were isolated from whole blood and resuspended in PBS. […] (final concentrations 25, 50, and 100 μM) and the mixtures were incubated at 37° C. for 60 min. After the incubation, the samples were centrifuged and the absorbance of 100 μL of supernatant was read at 410 nm. % RBC lysis is expressed relative to 100% lysis control. Values represent mean+SEM of n=3 separate experiments.
FIG. 6B. […] Compound I-19 in rat blood. Red blood cells were isolated from whole blood and resuspended in PBS. […] (final concentrations 25, 50, and 100 μM) and the mixtures were incubated at 37° C. for 60 min. After the incubation, the samples were centrifuged and the absorbance of 100 μl of supernatant was read at 410 nm. % RBC lysis is expressed relative to 100% lysis control. Values represent mean+SEM of n=3 separate experiments.
FIG. 6C. Hemolytic Potential of Amphotericin B in rat blood (positive assay control). Red blood cells were isolated from whole blood and resuspended in PBS. 190 μL of diluted RBC suspension and 10 μL of amphotericin B solutions were mixed at 0 min. (final concentrations 1, 10, 30, and 100 μM) and the mixtures were incubated at 37° C. for 60 min. After the incubation, the samples were centrifuged and the absorbance of 100 μL of supernatant was read at 410 nm. % RBC lysis is expressed relative to 100% lysis control. Values represent mean+SEM of n=3 separate experiments.
(§1) To a clear 96-well V-bottom polystyrene plate, the test articles (10 μL) and the diluted RBCs (190 μL) from human or rat blood were mixed for final concentrations of 25, 50, and 100 μM. The reaction mixture was incubated at 37° C. for 60 min. Following the exposure period, the plates were centrifuged. After centrifugation, 70 μL of supernatant (without disturbing the pellet) was transferred to a clean and clear polystyrene flat bottomed 96-well plate and the absorbance of the sample at a single wavelength was measured using a BioTech Synergy H1 Plate Reader at a wavelength of 410 nm. The positive control for this assay was amphotericin B test at concentrations of 1, 10, 30, and 100 μM.

The subject of a further data set is human red blood cells. Briefly: Hemolysis study in human blood. The class given is cell-based. To be noted: 60 min, 37° C. As to the method: FIG. 4A. […] Compound I-19 in human blood. Red blood cells were isolated from whole blood and resuspended in PBS. […] (final concentrations 25, 50, and 100 μM) and the mixtures were incubated at 37° C. for 60 min. After the incubation, the samples were centrifuged and the absorbance of 100 μL of supernatant was read at 410 nm. % RBC lysis is expressed relative to 100% lysis control. Values represent mean+SEM of n=3 separate experiments.
FIG. 4B. Hemolytic Potential of Compound I-4 in human blood. Red blood cells were isolated from whole blood and resuspended in PBS. 190 μL of diluted RBC suspension and 10 μL of Compound I-4 solutions were mixed at 0 min. (final concentrations 25, 50, and 100 μM) and the mixtures were incubated at 37° C. for 60 min. After the incubation, the samples were centrifuged and the absorbance of 100 μL of supernatant was read at 410 nm. % RBC lysis is expressed relative to 100% lysis control. Values represent mean+SEM of n=3 separate experiments.
FIG. 4C. Hemolytic Potential of Amphotericin B in human blood (positive assay control). Red blood cells were isolated from whole blood and resuspended in PBS. 190 μL of diluted RBC suspension and 10 μl of amphotericin B solutions were mixed at 0 min. (final concentrations 1, 10, 30, and 100 μM) and the mixtures were incubated at 37° C. for 60 min. After the incubation, the samples were centrifuged and the absorbance of 100 μL of supernatant was read at 410 nm. % RBC lysis is expressed relative to 100% lysis control. Values represent mean+SEM of n=3 separate experiments.
as §1

The next data set deals with Wistar rats. It counts as in vivo, Wistar rat. Here is the method: Animals were trained in eight automated 5C-SRTT operant chambers (Med Associates, St. Albans, VT, USA), controlled by MedPC software (Med Associates). Briefly, each operant chamber was equipped with 5 apertures containing a photocell beam to detect nose pokes and a lamp (2.8 W) that could be illuminated randomly at varying durations. Food pellets (45 mg chow pellet, BioServ, Frenchtown, NJ, USA) were delivered automatically to a magazine, located on the opposite wall to the nose pokes, that was also equipped with a light that turned on to indicate that a pellet had been dispensed. The house-light remained on for the entire session unless an error or omission occurred. Training sessions began with the delivery of a food reward and retrieval triggered the first trial. […] Training began with the stimulus duration set at 10 sec, a limited hold period of 5 sec and an ITI of 5 sec. […] Sessions ended when 40 minutes had lapsed or 100 trials had been completed.
Upon meeting the performance criteria, animals were assessed in the vSD version of the task where the following stimulus durations were presented in a pseudorandom manner: 0.3, 0.6 and 0.9 sec. Later, subjects were assessed in the vITI version where 2.5, 5.0 and 10.0 sec ITIs were employed in a pseudorandom manner. Performance parameters measured were: % hit ((# correct/(# correct+# incorrect including omissions))×100); % correct ((# correct/(# correct+# incorrect excluding omissions))×100); premature responses (# of nose-pokes into any aperture after trial initiation but before onset of the stimulus light); timeout responses (# of nose pokes into any aperture during a timeout period), perseverative responses (# of nose pokes occurring after the correct response had been made but before reward collection); # of food magazine head entries, omissions and total trials completed. The latency to correct response (time taken from the onset of the nose poke light stimulus to making the correct nose poke response), latency to incorrect response (time taken from onset of nose poke light stimulus to making the incorrect nose poke response), and latency to reward (i.e., the magazine latency, time taken from making a correct nose poke response to retrieving the reward from the magazine) was also recorded.
Drug doses and vehicle were administered in a pseudorandom fashion. Drug or vehicle sessions were performed 1-2 times per week with maintenance training (behavioral testing without drug or vehicle injections) interspersed.
All data were collated and entered into Microsoft Excel spreadsheets. The data were subsequently imported into StatView 5.0 for statistical analyses. One and two factor analysis of variance (ANOVA) tests were used with repeated measures when indicated, followed by Fisher LSD or Student Newman Keuls as post-hoc tests. All results were expressed as the mean (±S.E.M.). Differences between means from experimental groups were considered significant at the p<0.05 level. The statistical F values and degrees of freedom associated with the two factor ANOVA analyses are provided in the text of this report. Please refer to the statistical reports in the appendices for the values associated with one factor ANOVAs for the overall means and overall total values.

[2] abbreviates: test articles 25, 50, 100 μM, amphotericin B 1, 10, 30, 100 μM.

Read-outs that look alike come from different tables or passages of the source.

In the case of `CNCCCN1c2ccccc2CCc2ccccc21` [Desipramine, reference compound], in data set [1], the “latency to REM (effect)” value is recorded as “increased the latency to REM onset” and the “cataplexy (C) time” value is reported as “decreased significantly for the first 2 h post administration but was not significant overall”. Also, the “cataplexy (C) time” value in data set [1] (listed as Des) is “decreased for the first 2 h post administration but was not significant overall”. In addition, the REM time result in data set [1] (same doses) is on record as “overall reduction in REM sleep did not reach significance”.

`CCCN(CCC)S(=O)(=O)c1ccc(C(=O)O)cc1` [Probenecid]: the Transporter specific accumulation on OAT3 (500.00 μM nominal, E3S, Table 130) came to 291.67 ± 17.04 cpm. Besides, on OAT3 (500.00 μM, reference inhibitor), the “Relative transporter specific accumulation” value is reported as 1.68 ± 0.31 % of control. Also, the inhibition (as a rule, how much of the control response was suppressed) at 500 μM on OAT3 (Relative Inhibition, 500.00 μM nominal, E3S, Table 130) stood at 98%; against OAT3 (Relative inhibition, 500.00 μM, reference inhibitor), 97%.

Regarding `C[C@@H]1[C@H](O)[C@@H](C)/C=C/C=C/C=C/C=C/C=C/C=C/C=C/[C@H](O[C@@H]2O[C@H](C)[C@@H](O)[C@H](N)[C@@H]2O)C[C@@H]2O[C@](O)(C[C@@H](O)C[C@@H](O)[C@H](O)CC[C@@H](O)C[C@@H](O)CC(=O)O[C@H]1C)C[C@H](O)[C@H]2C(=O)O` [amphotericin B, reference compound], the EC50 (in general, the concentration at which the effect is half-maximal) is 4.73 µM in the data set on rat red blood cells (read-out: EC50 (% RBC lysis)) and 7.06 µM in the data set with human red blood cells (read-out: EC50 (% RBC lysis)). The “% RBC lysis (hemolytic potential)” value with rat red blood cells (setting [2]) and with human red blood cells (setting [2]) was “dose-dependent increase in % RBC lysis” throughout.

For `CN1CCCC1c1cccnc1` (stereo not shown) [nicotine, Nicotine, reference compound], in the data set on Wistar rats (nicotine 0.05-0.2 mg/kg sc, Compound I-4 0.1-3.0 mg/kg ip, Compound I-19 0.03-1.0 mg/kg ip), the “% hit rate” value is on record as “increase in the % hit rate”. In the data set on Wistar rats (same doses), the “% correct” value is listed as “no statistically significant effects”; the Magazine Head Entries result was “increase in the number of premature responses, timeout responses, magazine head entries”; the Omissions entry is reported as “decrease in omissions”; the “number of trials completed” value is reported as “no effect on the total number of trials completed”. For the same molecule, in the data set on Wistar rats (same doses), the perseverative responses result is listed as “no statistically significant effects on perseverative responses or reward latencies”; the premature responses result is reported as “the higher 2 doses of nicotine were associated with an increase”; the “response latencies (correct, incorrect)” value is “modest decrease in the response latencies associated with correct responses”; the reward latencies entry is on record as “no statistically significant effects on perseverative responses or reward latencies”. Moreover, in the data set on Wistar rats (same doses), the timeout responses entry is reported as “increase in the number of premature responses, timeout responses, magazine head entries”.

(Values after US20250108038A1 (priority 2023, published 2025).)
